5 molecules from patent publication US20250127777A1, “DUAL INHIBITION OF MDM2 AND EIF2-ALPHA INDUCES CELL DEATH IN MULTIPLE CANCER CELL TYPES” (The Regents of the University of Colorado, A Body Corporate, priority 2022, published 2025) can be followed below.

One experiment concerns cell viability. The experiment can be described thus: Cell viability after single-agent treatment. The class given is cell-based.
The next experiment deals with HCT116 xenograft tumors. The experiment is described as follows: HCT116 xenograft tumor model. Conditions: nude mice, 200 mg/kg nelfinavir and/or 200 mg/kg milademetan. In kind it is in vivo. As for the experimental part:
Athymic nude mice (NU/NU) weighting 20 to 30 grams and being 8-12 weeks of age (Charles River Labs) were housed in cages under standard conditions (22° C., 50% relative humidity, 12-h light/dark cycles) and provided with food and water ad libitum. Next, […] exponentially growing HCT116 cells resuspended in 100 μl Matrigel/PBS (5 mg/ml final) were injected subcutaneously into both flanks. Tumors grew for 10-14 days before treatment initiation. Experimental animals were given 200 mg/kg nelfinavir and/or 200 mg/kg Milademetan (Rain Therapeutics) by oral gavage once daily, 5 days a week. Tested compounds were prepared in a mixture of 2% Klucel (hydroxypropyl cellulose), 0.5% Tween 80, and 35% ethanol. Tumor volumes (v) were estimated daily, 5 days a week using caliper measurements and formula v=(I×w^2)/2, where I represents the greatest length of the tumor and w is tumor width in the perpendicular axis. Average volumes of the right and left flank tumors were used for plotting and calculations. Equal ratios of male and female mice were used in treatment groups (5 males and 5 females). All in vivo experiments were approved by the Institutional Animal Care and Use Committee at the CU-AMC (IACUC protocol 00432).
(§1) After indicated treatments, cells were washed with PBS, total RNA was extracted using Trizol substitute (38% Phenol, saturated, pH 4.3, 0.8 M guanidine thiocyanate, 0.4 M ammonium thiocyanate, 0.1 M sodium acetate, pH 5.0, 5% glycerol), and converted to cDNA with High-Capacity cDNA Reverse Transcription Kit (Thermo Fisher). Next, diluted cDNA was used in quantitative PCR reaction using SYBR Select Master Mix for CFX (Thermo Fisher). Detected mRNA levels were normalized to 18s rRNA values.
Tumors fixed in 4% formaldehyde were transferred to 70% ethanol and embedded in paraffin at the Pathology Shared Resource-Research Histology, University of Colorado Anschutz Medical Campus. Three tumors from each experimental group were sectioned, stained with DAPI and Ki67 primary antibody using Akoya Opal technology (Akoya Biosciences), and scanned at six representative regions with Vectra 3.0 (Akoya Biosciences) at the Human Immune Monitoring Shared Resource (University of Colorado Anschutz). Next, InForm image analysis software (Akoya Biosciences) was used for automated identification of nuclei based on the DAPI signal. Ki67 nuclear fluorescence was outputted for all nuclei.

Experiment [1] relates to K1 cells. The experiment can be described thus: Annexin V-FITC/PI apoptosis assay by flow cytometry. The class given is cell-based. Particulars: 10 μM nutlin-3a, 25 μM GSK2830371, or both, 72 hours. As for the experimental part: (§2) TPC1, K1, HCT116, MCF7, SJSA, and HEK293FT cells were cultivated in RPMI (TPC1, SJSA), DMEM (K1, MCF7, HEK293FT), and McCoy's (HCT116) media (Gibco, Thermo Fisher Scientific) supplemented with 10% fetal bovine serum (Peak Serum) and 1% antibiotic-antimycotic mixture (Gibco). Cells were plated a day before the treatment and maintained in a humidified atmosphere with 5% of CO2 at 37° C. Both TPC1 and K1 lines were gifts from Dr. Rebecca Schweppe, University of Colorado Anschutz Medical Campus (CU-AMC). Cell line identity has been verified by short tandem repeats profiling at the Cell Technologies Shared Resource, CU-AMC. Colorectal cancer organoid cultures (CRC172) were obtained from the Enteroid Stem Cell Core facility at CU-AMC.
(§3) The fraction of apoptotic cells was determined by Annexin V-FITC/PI assay. Briefly, cells harvested by trypsinization were resuspended in Annexin-V binding buffer (10 mM HEPES pH 7.4, 140 mM NaCl, 2.5 mM CaCl2)). Approximately 2*10^5 cells were labeled with Annexin-V-FITC (Invitrogen) and PI (10 μg/ml, Millipore-Sigma) for 15 minutes in the dark before flow cytometric analysis (Accuri C6, Becton Dickinson). To analyze mitochondrial membrane potential (44m) cells were trypsinized and resuspended in cultivation media. An aliquot of approximately 5*10^5 cells per sample was mixed with tetramethylrhodamine, ethyl ester, perchlorate (TMRE, Thermo Fisher, 100 nM final concentration) solution, incubated for 10 minutes in the dark, and analyzed by flow cytometer.
Background: A flow cytometer gives signals particle by particle.

For experiment [2], the system named is TPC1 cells. Described as above. The class given is cell-based. Conditions: 10 μM nutlin-3a, 25 μM GSK2830371, or both, 72 hours. As for the experimental part: as §2, §3
Another experiment relates to p53. The experiment can be described thus: Western blot of p53 in thyroid carcinoma cells. Conditions: TPC1 and K1 cells; 10 μM nutlin-3a, 25 μM GSK2830371; 24 hours. The class given is cell-based. As for the experimental part:
Following a brief sonication (2.5W, 5 sec) and heat denaturation (90° C., 5 min), total protein concentration in whole cell lysates was measured by a BCA Protein Assay Kit (Pierce, Thermo Fisher Scientific). 20 μg of protein per sample was resolved by SDS-PAGE and transferred onto a 0.45 μm PVDF membrane (0.2 μm for ATF3 detection). Membranes were incubated in blocking buffer (5% fat-free milk in wash buffer—20 mM Tris pH 7.6, 150 mM NaCl, 0.2% Tween 20) for an hour at RT and o/n at 4° C. with the primary antibody diluted in a fresh blocking buffer. Next day membranes were washed three times for 10 min in the wash buffer, incubated with HRP-conjugated secondary antibody for an hour at RT, and washed again three times in the wash buffer. SuperSignal West Pico Plus Chemiluminescence Substrate (Pierce) was used for detection and digital images were acquired using an ImageQuant LAS 4000 (GE Healthcare Life Sciences).

Experiment [3] relates to K1 cells. The experiment can be described thus: RNA-seq transcriptome analysis (DESeq2). The class given is cell-based, Human. As for the experimental part:
(§4) TPC1 and K1 cells were plated at 2*104/cm2 and treated for 24 hours as indicated. Following the treatment period, cells were washed with ice-cold PBS and lysed in TRI Reagent (Millipore Sigma). Quality of the extracted RNA was assessed by Agilent Bioanalyzer 2100 using RNA 6000 Pico chips (Agilent). Single-end 150 bp sequencing of the poly-A (+)-enriched RNA was carried out on the Illumina HiSeq 4000 platform by the Genomics Core facility at the University of Colorado Anschutz.
(§5) Quality of the sequencing data was analyzed using FASTQC (version 0.11.2, available at the website www.bioinformatics.babraham.ac.uk/projects/fastqc and presence of common sequencing contaminants was assessed by FastQ Screen (v0.4.4) available at the website www.bioinformatics.babraham.ac.uk/projects/fastq_screen/. Bases with low quality (Q<10) were 3′ end trimmed and reads shorter than 30 nt were discarded using the Fastx toolkit (v0.0.13.2). Reads were aligned to a GRCh37/hg19 Human reference using TopHat2 (v2.0.13,-b2-sensitive-keep-fasta-order-no-coverage-search-max-multihits 10-library-type fr-firststrand) (Kim et al., 2013) with the UCSC hg19 GTF annotation file provided in the iGenomes UCSC hg19 bundle available at the website: support.illumina.com/sequencing/sequencing_software/igenome.html. Aligned reads with MAPQ<10 quality were removed using SAMtools (v0.1.19). Alignments were then sorted by coordinates, and duplicates were identified using Picard (v1.129). Quality assessment of final mapped reads was conducted using RSeQC (v2.6) (Wang et al., 2012). Gene-level counts were obtained using HTSeq (v0.6.1) (Anders et al., 2015) with the following options (-stranded=reverse -minaqual=10-type=exon-idattr=gene_id_mode=intersection-nonempty) using the iGenomes UCSC hg19 GTF annotation file. Differential gene expression was evaluated using DESeq2 (version 1.6.3) (Love et al., 2014) in R (version 3.1.0), using q<0.05 (FDR<5%) and fold-change>1.5 (Up) or <1/1.5 (Down) as cutoffs for differentially expressed genes. Genome browser snapshots were generated from bedGraph or tgv files using IGV genome viewer (v2.8.10) (Thorvaldsdottir et al., 2013).

For experiment [4], the system named is TPC1 cells. The experiment is described as follows: RNA-seq transcriptome analysis (DESeq2). In kind it is cell-based, Human. As for the experimental part: as §4, §5
A further experiment deals with ATF3 and ATF4 mRNA. The experiment can be described thus: ATF3 and ATF4 mRNA induction (RNA-seq, Q-RT-PCR). In kind it is cell-based, Human. Particulars: TPC1, K1, and four other cell lines; 24 hours.
From the text: as §1
TPC1 and K1 cells were plated at 2*104/cm2 and treated for 24 hours as indicated. Following the treatment period, cells were washed with ice-cold PBS and lysed in TRI Reagent (Millipore Sigma). Quality of the extracted RNA was assessed by Agilent Bioanalyzer 2100 using RNA 6000 Pico chips (Agilent). Single-end 150 bp sequencing of the poly-A (+)-enriched RNA was carried out on the Illumina HiSeq 4000 platform by the Genomics Core facility at the University of Colorado Anschutz. […]

The test system of a further experiment is ATF3 and ATF4 gene loci. The experiment can be described thus: GRO-seq transcriptional activity at ATF3 and ATF4 gene loci. In kind it is cell-based. Conditions: 60 minutes of nutlin treatment (10 μM); three different cell lines.
The subject of a further experiment is TPC1 and HCT116. The experiment can be described thus: Polysome profiling (polysome/monosome ratio). The class given is cell-based. Particulars: 24 hours. On the procedure: TPC1 and HCT116 were plated at 6*104/cm2 on 143 cm2 dishes, cultivated o/n, and treated accordingly. Ten minutes before the harvest cultivation media was supplemented with cycloheximide (CHX) at final concentration of 100 μg/ml. Next, cells were washed twice with ice-cold PBS with 100 μg/ml CHX and lysed in polysome preparation lysis buffer (20 mM HEPES pH 7.4, 15 mM MgCl2, 200 mM NaCl, 1% Triton X-100, 100 μg/ml CHX, 2 mM DTT, and 100U SuperaseIN). Lysates were cleared of debris by centrifugation at 20,000g, 4° C. for 10 minutes. Total nucleic acid content in lysates was measured by absorbance at 260 nm and used for sample concentration normalization. Next, 500 μl of the lysate was loaded on 10-60% sucrose gradients in SW41 tubes in lysis buffer lacking Triton X-100. These gradients were prepared using a BioComp system and chilled to 4° C. before use. Samples were ultracentrifuged at 36,000 rpm for 3 hours and 10 min, at 4° C., then samples were fractionated using a BioComp system, monitoring absorbance at 260 nm while collecting fractions of approximately 0.4 ml each.

Another experiment has as its system diverse cell types. The experiment can be described thus: Annexin V-FITC/PI apoptosis assay, elF2α plus MDM2 inhibition. The class given is cell-based. As for the experimental part:
as §2
as §3, with “To analyze mitochondrial membrane potential (44m) cells were trypsinized and resuspended in cultivation media.” left out

The mark [5] stands for this setting: FDR<5%, adjusted fold change>1.5.
Where [6] appears, read: nutlin 10 μM, GSK2830371 25 μM, or both, 24 hours.

Regarding `COc1cc(C(=O)O)ccc1NC(=O)[C@@H]1N[C@@H](CC(C)(C)C)[C@](C#N)(c2ccc(Cl)cc2F)[C@H]1c1cccc(Cl)c1F` [idasanutlin], the “effects on cell viability when administered alone” value (shortened to “effects on cell viability”) in the experiment on cell viability is recorded as “limited effects on cell viability”.
`CC1(C)CCC2(CC1)N[C@@H](C(=O)N[C@@H]1CC[C@@H](C(N)=O)OC1)[C@H](c1ccnc(Cl)c1F)[C@]21C(=O)Nc2cc(Cl)ccc21` [milademetan]: the “animal survival (Kaplan Meier; humane endpoint tumor size>1000 mm^3)” value in the experiment on HCT116 xenograft tumors (oral gavage) is reported as “had to be sacrificed at the humane endpoint”. Besides, in the experiment with HCT116 xenograft tumors (oral gavage once daily, 5 days a week), the tumor growth result is given as “Tumors continued to grow”. In addition, the “effects on cell viability” value in the experiment on cell viability is “limited effects on cell viability”.
Consider `COc1ccc(C2=N[C@@H](c3ccc(Cl)cc3)[C@@H](c3ccc(Cl)cc3)N2C(=O)N2CCNC(=O)C2)c(OC(C)C)c1` [nutlin-3a], for which the “apoptosis (Annexin V-FITC/PI)” value in the experiment on K1 cells [1] and in the experiment with TPC1 cells [2] was “does not cause p53-dependent apoptosis” throughout. Also, the p53 stabilization entry with p53 is “stabilizes p53”. Also, the “genes induced by both nutlin and nutlin+GSK2830371” value is recorded as 367 genes with K1 cells [3] (setting [5]) and 1924 genes in the experiment with TPC1 cells [4] (setting [5]). The “differentially expressed mRNAs versus vehicle” value with K1 cells [3] (setting [6]) and in the experiment on TPC1 cells [4] (setting [6]) was “hundreds of mRNAs significantly upregulated or downregulated” throughout. In addition, in the experiment on ATF3 and ATF4 mRNA, the “ATF3 induction at the mRNA level” value is recorded as “clear induction of ATF3”. The “ATF4 induction at the mRNA level” value in the experiment on ATF3 and ATF4 mRNA was “not ATF4”. Further, the “transactivation of ATF3 (GRO-seq)” value in the experiment with ATF3 and ATF4 gene loci is listed as “rapid transactivation of ATF3”. Further, the “transactivation of ATF4 (GRO-seq)” value in the experiment with ATF3 and ATF4 gene loci is recorded as “not ATF4”. Besides, the polysome/monosome ratio result in the experiment on TPC1 and HCT116 is given as “decreases in the polysome/monosome ratio”. Besides, in the experiment on cell viability, the “effects on cell viability” value is on record as “limited effects on cell viability”.
Consider `O=C(/C=C/c1ccccc1)NC(NC(=S)Nc1ccc(Cl)cc1)C(Cl)(Cl)Cl` (stereo not shown) [sal003], for which the “synergy with small molecule inhibitors of MDM2 to elicit p53-dependent cell death” value with diverse cell types was “synergize with small molecule inhibitors of MDM2 to elicit p53-dependent cell death”.
`COc1ncc(-c2nc3c(n2C(C)C)[C@H](c2ccc(Cl)cc2)N(c2cc(Cl)cn(C)c2=O)C3=O)c(OC)n1` [siremadlin/HDM201, siremadlin]: the “effects on cell viability” value in the experiment on cell viability is reported as “limited effects on cell viability”.
